The source of these data is patent publication US9133209B2, “Insecticidal 4-amino-thieno[2,3-D]-pyrimidine compounds and methods of their use” (priority 2009, dated 2015).

Common to all, as to format: in vivo
Assay [1] deals with Cowpea Aphid (aphis craccivora). Kind of assay: Cowpea aphid spray test on potted cowpea plants. To be noted: for mortality at 300 ppm: Aphis craccivora, cowpea aphid on potted cowpea plants, sprayed, assessed after 24, 72 and 120 hours, read-out: mortality in comparison with untreated controls; for activity in [%]: Cow pea aphid, 300 ppm, scale 0% no biological activity to 100% total control. Here is the method: (§1) Under general conditions, if not otherwise specified, most test solutions are prepared as follow: The active compound is dissolved at the desired concentration in a mixture of 1:1 (vol:vol) distilled water:acetone. The test solution is prepared at the day of use.
(§2) Test solutions are prepared in general at concentrations of 1000 ppm, 500 ppm, 300 ppm, 100 ppm and 30 ppm (wt/vol).
B.1 Cowpea Aphid (aphis craccivora)
Potted cowpea plants colonized with approximately 100-150 aphids of various stages were sprayed after the pest population has been recorded. Population reduction was assessed after 24, 72, and 120 hours.

In assay [2] the test system is Rice Brown Plant Hopper (Nilaparvata lugens). Kind of assay: Rice brown plant hopper test on sprayed rice seedlings. The conditions noted are these: for activity in [%]: Nilaparvata lugens, 300 ppm, scale 0% no biological activity to 100% total control; for mortality at 300 ppm: Nilaparvata lugens adults on sprayed rice seedlings, 72 hours, read-out: mortality in comparison with untreated controls. The protocol: B.3 Rice Brown Plant Hopper (Nilaparvata lugens)
Rice seedlings were cleaned and washed 24 hours before spraying. The active compounds were formulated in 50:50 acetone:water (vol:vol) and 0.1% vol/vol surfactant (EL 620) was added. Potted rice seedlings were sprayed with 5 ml test solution, air dried, placed in cages and inoculated with 10 adults. Treated rice plants were kept at about 28-29° C. and relative humidity of about 50-60%. Percent mortality was recorded after 72 hours.

For assay [3], the system named is Spider Mite (Tetranychus spp.). Nature of the assay: Spider mite contact/oral activity on potted cotton plants. The conditions noted are these: for mortality at 300 ppm: Tetranychus, po, spider mites on potted cotton plants, sprayed, assessed after 24, 72 and 120 hours, read-out: mortality in comparison with untreated controls; for activity in [%]: Spider mite, 300 ppm, scale 0% no biological activity to 100% total control. The protocol: as §1, §2
B.2 Spider Mite (Tetranychus spp.)
Potted cotton plants colonized with approximately 50 mites of various stages are sprayed after the pest population has been recorded. Population reduction (or increase) after 24, 72, and 120 hours is assessed.

Assay [4] relates to Yellow Fever Mosquito (Aedes aegypti) neonate larvae. Nature of the assay: Yellow fever mosquito larval motility assay in microtiter plates. Here is the method: B.4. Activity Against Yellow Fever Mosquito (Aedes aegypti)
The compounds were formulated in 100% DMSO and were tested in microtiter plates containing 180 ul 1× Luria Broth media and 10 neonate A. aegypti larvae. The efficacy of a compound was determined based on the motility of the larvae as compared to average motility of control wells containing DMSO only. Compounds with >80% reduction in motility at a concentration of 10 ppm were tested in a dose response assay to determine EC50 values.

The subject of assay [5] is Ctenocephalides felis fleas. Nature of the assay: Rat ectoparasiticide model (flea infestation, topical treatment). The conditions noted are these: for Efficacy in [%]: Ctenocephalides felis on rats; for reduction of flea counts (% efficacy): rats, topical, 48 hours post-treatment, average, n=2 replicas. The protocol: B.5. Activity in Rat Ectoparasiticide Model
Rats were infested with 50 Ctenocephalides felis fleas. Approximately twenty four hours later rats (3 per group) were treated topically with test compounds at doses of 20 mg/kg or 10 mg/kg body weight. Placebo (vehicle) and positive control groups were included in each study. Forty eight hours post-treatment, fleas were collected from each rat using a flea comb. The percent efficacy per treatment group was calculated using the following formula: % efficacy=100×(C−T)/C
where C is the geometric mean of live fleas recovered in the placebo group and T is the geometric mean of live fleas recovered in the respective treatment group.

Consider `CC(Nc1ncnc2scc(Cl)c12)c1ccc(SC(F)F)cc1` (centres unmarked) [C.2], for which the mortality at 300 ppm in assay [1] was > 80%.
In the case of `CSc1ccc(C(C)Nc2ncnc3scc(Cl)c23)cc1` (centres unmarked) [CE.1, reference compound], the “activity in [%]” value in assay [2] was 0%.
With `CC(Nc1ncnc2scc(Cl)c12)c1ccc(SCC(F)(F)F)cc1` (centres unmarked) [C.5], the mortality at 300 ppm in assay [1] is > 80%.
On to `CC(Nc1ncnc2scc(Cl)c12)c1ccc(SC(F)(F)C(F)(F)F)cc1` (centres unmarked) [C.6], for which the mortality at 300 ppm in assay [1], in assay [3] and in assay [2] was > 80% each time.
In the case of `C[C@H](Nc1ncnc2scc(Cl)c12)c1ccc(SC(F)(F)F)cc1` [C.3-S, (5-Chloro-thieno[2,3-d]pyrimidin-4-yl)-[(S)-1-(4-trifluoromethylsulfanyl-phenyl)-ethyl]-amine], the figures for the “activity in [%]” value in assay [1], in assay [3] and in assay [2] were 100%, 90% and 100%, respectively. The “EC50 (section headed 'Activity at 1 [ppm]')” value in assay [4] was 0.21 ppm. For the same compound, the results for the “Efficacy in [%]” value in assay [5] (dosage 10 mg/kg) and in assay [5] (dosage 20 mg/kg) were 71% and 89%, respectively. The entries for the “reduction of flea counts (% efficacy)” value in assay [5] (10 mg/kg) and in assay [5] (20 mg/kg) were 71% and 89%, respectively.
`CC(Nc1ncnc2scc(Cl)c12)c1ccc([S+]([O-])C(F)(F)F)cc1` (centres unmarked) [C.4]: the mortality at 300 ppm in assay [1] was > 80%.
On to `CC(Nc1ncnc2scc(Cl)c12)c1ccc(SC(F)(F)F)cc1` (centres unmarked) [C.3], for which the mortality at 300 ppm in assay [1], in assay [3] and in assay [2] was > 80% throughout. Moreover, the “activity in [%]” value in assay [1] is reported as 100%; in assay [3] it was 90%; in assay [2], 100%. Further, the “EC50 (section headed 'Activity at 1 [ppm]')” value in assay [4] is given as 0.29 ppm.
Consider `FC(F)(F)Sc1ccc(CNc2ncnc3scc(Cl)c23)cc1` [C.1], for which the mortality at 300 ppm in assay [1] is > 80%.
`C[C@H](Nc1ncnc2scc(Cl)c12)c1ccc(OC(F)(F)F)cc1` [CE.2, reference compound]: in assay [3], the “activity in [%]” value came out at 50%. For the same compound, the “Efficacy in [%]” value came out at 70% in assay [5] (dosage 10 mg/kg) and 82% in assay [5] (dosage 20 mg/kg).
As for `C[C@@H](Nc1ncnc2scc(Cl)c12)c1ccc(SC(F)(F)F)cc1` [C.3-R], the “activity in [%]” value in assay [1], in assay [3] and in assay [2] was 0% throughout.
